Results: patent US6838453B2, “Antagonist derivatives of the vitronectin receptor” (Aventis Pharma S.A., priority 2000, dated 2005)
Where a name gives a salt, the structure may show the parent alone.

Target: human αvβ3 receptor (Homo sapiens, UniProt P05106+P06756)
Assay: Kistrin/Vitronectin Receptor (αvβ3) ELISA test
Type: binding
Conditions: Kistrin-coated plates, co-incubated 3 hours at ambient temperature, 4B12-HRP antibody, OD 450 nm, read-out: K/VnR IC50
Protocol: Kistrin/Vitronectin Receptor (αvβ3) ELISA Test
96-well MaxiSorp planes are coated overnight at […] with 100 μl of Kistrin at 1 μg/ml (dilution in a coating buffer: carbonate 0.05 M/NaOH pH 9.6). The next day, the wells are emptied and the ligands (kistrin) are then fixed (fixing buffers: PBS containing 0.5% BSA (pH=7.4)) for 1 hour at ambient temperature with gentle agitation at 125 rpm. The wells are washed six times (washing buffer: PBS containing 0.05% of Tween 20 (pH 7.7) then the following are added per well and in this order: • 40 μl of incubation buffer • 10 μl of the dilution of the product to be tested (the products are diluted in a 50:50 mixture DMSO/Water) • 50 μl of human αvβ3 receptor (cf Pytella et al. Methods Enzymol. (1987) 144 (Dilution in incubation buffer, to be adapted according to the receptor batch and according to the ligand). The ligand, the αvβ3 receptor and the products to be studied are co-incubated for 3 hours at ambient temperature with gentle agitation at 125 rpm.
The wells are again washed six times, then incubated for 2 hours at ambient temperature with gentle agitation at 125 rpm, in the presence of 100 μl of anti-receptor antibody conjugated to a peroxidase (The 4B12-HRP antibody is diluted in an incubation buffer (50 mM TRIS pH 7.4; 0.5% BSA; 0.05% Tween 20; 1 mM MnCl2; 50 μM CaCl2; 50 μM MgCl2; 100 mM NaCl) The dilution is adapted according to the receptor batch.
The wells are then washed six times before measuring the ligand-receptor bond carried out using a peroxidase developer kit (TBM Microwell Peroxidase Substrate System Kirkegaard; Cat. Ref. 50-76-00).
This kit contains a bottle A of substrate (3,3′,5,5′-tetramethylebenzidine at 0.4 g/l) and a bottle B (H2O2 at 0.02% in a Citrate/Citric acid buffer). Extemporaneously, a volume of A is mixed with a volume of B, then the reaction mixture is distributed at a rate of 100 μl/well.
The enzymatic reaction develops between 6 and 10 minutes for Kistrin/αvβ3 then its evolution is stopped by the addition of 100 μl of 1M phosphoric acid. The optical density is determined at 450 nm.
Expression of the Results
The following curve is plotted: the bond percentage as a function of the logarithm of each concentration of the tested product.
For each product, the IC50 is determined according to the following formula: IC50=(B0+Bmin)/2 • B0=Maximum bond in the absence of any product • Bmin =Minimum bond in the presence of the highest concentration of the product.

Sequence of human αvβ3 receptor (P06756 31-889 limits assumed): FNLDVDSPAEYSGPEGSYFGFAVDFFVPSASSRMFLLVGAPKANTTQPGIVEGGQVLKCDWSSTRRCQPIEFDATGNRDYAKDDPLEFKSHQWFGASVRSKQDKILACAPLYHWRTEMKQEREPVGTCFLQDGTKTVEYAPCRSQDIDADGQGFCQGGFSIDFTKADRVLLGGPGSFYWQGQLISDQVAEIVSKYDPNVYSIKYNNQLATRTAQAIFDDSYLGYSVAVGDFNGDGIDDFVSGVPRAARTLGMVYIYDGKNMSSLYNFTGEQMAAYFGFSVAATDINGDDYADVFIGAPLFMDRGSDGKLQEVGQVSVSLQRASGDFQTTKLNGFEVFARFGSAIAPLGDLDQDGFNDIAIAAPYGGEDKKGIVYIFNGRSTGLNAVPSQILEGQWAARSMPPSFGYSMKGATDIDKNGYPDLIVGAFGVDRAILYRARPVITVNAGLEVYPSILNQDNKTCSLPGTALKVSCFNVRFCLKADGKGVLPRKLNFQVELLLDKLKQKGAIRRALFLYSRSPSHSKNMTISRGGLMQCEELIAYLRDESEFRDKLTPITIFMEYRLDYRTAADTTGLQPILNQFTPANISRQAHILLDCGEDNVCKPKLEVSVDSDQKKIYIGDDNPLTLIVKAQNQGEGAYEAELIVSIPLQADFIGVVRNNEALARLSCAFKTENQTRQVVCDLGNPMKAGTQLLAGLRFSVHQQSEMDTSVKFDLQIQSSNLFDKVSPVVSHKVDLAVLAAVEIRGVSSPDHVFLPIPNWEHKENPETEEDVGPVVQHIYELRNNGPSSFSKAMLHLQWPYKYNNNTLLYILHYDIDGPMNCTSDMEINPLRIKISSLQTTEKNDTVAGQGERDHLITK
Sequence of human αvβ3 receptor (P06756 891-1048 limits assumed): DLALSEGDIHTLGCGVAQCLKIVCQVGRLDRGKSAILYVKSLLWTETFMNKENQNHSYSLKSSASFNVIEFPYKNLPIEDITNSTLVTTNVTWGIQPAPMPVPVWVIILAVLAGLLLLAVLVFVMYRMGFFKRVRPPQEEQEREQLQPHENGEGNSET
Sequence of human αvβ3 receptor (P05106 27-788): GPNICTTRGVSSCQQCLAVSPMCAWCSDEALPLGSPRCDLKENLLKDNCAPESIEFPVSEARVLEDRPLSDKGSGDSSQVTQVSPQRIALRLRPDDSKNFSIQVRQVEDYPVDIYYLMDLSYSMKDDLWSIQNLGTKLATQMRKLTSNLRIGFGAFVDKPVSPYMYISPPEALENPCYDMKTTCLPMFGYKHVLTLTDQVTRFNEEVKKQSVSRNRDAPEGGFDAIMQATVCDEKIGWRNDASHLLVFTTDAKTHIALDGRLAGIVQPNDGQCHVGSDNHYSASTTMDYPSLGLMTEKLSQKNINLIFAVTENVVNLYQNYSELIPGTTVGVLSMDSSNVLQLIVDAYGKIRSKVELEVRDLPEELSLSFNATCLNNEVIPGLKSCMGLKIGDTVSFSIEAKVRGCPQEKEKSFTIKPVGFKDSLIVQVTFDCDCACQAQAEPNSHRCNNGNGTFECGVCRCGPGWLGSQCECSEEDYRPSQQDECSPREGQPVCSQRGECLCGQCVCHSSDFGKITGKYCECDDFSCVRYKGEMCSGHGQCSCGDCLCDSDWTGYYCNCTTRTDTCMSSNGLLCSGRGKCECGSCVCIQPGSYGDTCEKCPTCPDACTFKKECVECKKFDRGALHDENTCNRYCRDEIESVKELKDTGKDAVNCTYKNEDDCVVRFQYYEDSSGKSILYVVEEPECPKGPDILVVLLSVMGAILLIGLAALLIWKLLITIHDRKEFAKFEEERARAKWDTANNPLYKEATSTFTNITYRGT

| IC50 | Compound |
| --- | --- |
| 9 nM | O=C(CCCOc1ccc(C[C@H](Nc2nc3cccc(F)c3o2)C(=O)O)cc1)NC1=NCCCN1 [Example 12, N-(7-fluoro-2-benzoxazolyl)-O-[4-oxo-4-[(1,4,5,6-tetrahydro-2-pyrimidinyl)amino]butyl]-L-tyrosine] |
| 7 nM | O=C(CCCOc1ccc(C[C@H](Nc2nc3ccc(F)cc3o2)C(=O)O)cc1)NC1=NCCCN1 [Example 13, N-(6-fluoro-2-benzoxazolyl)-O-[4-oxo-4-[(1,4,5,6-tetrahydro-2-pyrimidinyl)amino]butyl]-L-tyrosine] |
| 7 nM | O=C(CCCOc1ccc(C[C@H](Nc2nc3cc(F)ccc3o2)C(=O)O)cc1)NC1=NCCCN1 [Example 14, N-(5-fluoro-2-benzoxazolyl)-O-[4-oxo-4-[(1,4,5,6-tetrahydro-2-pyrimidinyl)amino]butyl]-L-tyrosine trifluoroacetate] |
| 5 nM | O=C(CCCOc1ccc(C[C@H](Nc2nc3cccc(Cl)c3o2)C(=O)O)cc1)NC1=NCCCN1 [Example 15, N-(7-chloro-2-benzoxazolyl)-O-[4-oxo-4-[(1,4,5,6-tetrahydro-2-pyrimidinyl)amino]butyl]-L-tyrosine trifluoroacetate] |
| 9 nM | O=C(CCCOc1ccc(C[C@H](Nc2nc3ccc(Cl)cc3o2)C(=O)O)cc1)NC1=NCCCN1 [Example 16, N-(6-chloro-2-benzoxazolyl)-O-[4-oxo-4-[(1,4,5,6-tetrahydro-2-pyrimidinyl)amino]butyl]-L-tyrosine] |
| 9 nM | O=C(CCCOc1ccc(C[C@H](Nc2nc3cc(Cl)ccc3o2)C(=O)O)cc1)NC1=NCCCN1 [Example 17, N-(5-chloro-2-benzoxazolyl)-O-[4-oxo-4-[(1,4,5,6-tetrahydro-2-pyrimidinyl)amino]butyl]-L-tyrosine] |
| 11 nM | O=C(CCCOc1ccc(C[C@H](Nc2nc3cc(Br)ccc3o2)C(=O)O)cc1)NC1=NCCCN1 [Example 18, N-(5-bromo-2-benzoxazolyl)-O-[4-oxo-4-[(1,4,5,6-tetrahydro-2-pyrimidinyl)amino]butyl]-L-tyrosine trifluoroacetate] |
| 6 nM | O=C(CCCOc1ccc(C[C@H](Nc2nc3cc4ccccc4cc3o2)C(=O)O)cc1)NC1=NCCCN1 [Example 19, N-(naphth[2,3-d]oxazol-2-yl)-O-[4-oxo-4-[(1,4,5,6-tetrahydro-2-pyrimidinyl)amino]butyl]-L-tyrosine] |
| 35 nM | O=C(CCCOc1ccc(C[C@H](Nc2nc3c(ccc4ccccc43)o2)C(=O)O)cc1)NC1=NCCCN1 [Example 20, N-(naphth[1,2-d]oxazol-2-yl)-O-[4-oxo-4-[(1,4,5,6-tetrahydro-2-pyrimidinyl)amino]butyl]-L-tyrosine] |
| 6 nM | O=C(CCCOc1ccc(C[C@H](Nc2nc3cc(-c4ccccc4)ccc3o2)C(=O)O)cc1)NC1=NCCCN1 [Example 21, O-[4-oxo-4-[(1,4,5,6-tetrahydro-2-pyrimidinyl)amino]butyl]-N-(5-phenyl-2-benzoxazolyl)-L-tyrosine] |
| 8 nM | O=C(CCCOc1ccc(C[C@H](Nc2nc3ccc([N+](=O)[O-])cc3o2)C(=O)O)cc1)NC1=NCCCN1 [Example 22, N-(6-nitro-2-benzoxazolyl)-O-[4-oxo-4-[(1,4,5,6-tetrahydro-2-pyrimidinyl)amino]butyl]-L-tyrosine] |
| 10 nM | O=C(CCCOc1ccc(C[C@H](Nc2nc3cc(C(F)(F)F)ccc3o2)C(=O)O)cc1)NC1=NCCCN1 [Example 23, O-[4-oxo-4-[(1,4,5,6-tetrahydro-2-pyrimidinyl)amino]butyl]-N-[5-(trifluoromethyl)-2-benzoxazolyl)-L-tyrosine] |
| 12 nM | O=C(CCCOc1ccc(C[C@H](Nc2nc3ccc(F)c(F)c3o2)C(=O)O)cc1)NC1=NCCCN1 [Example 27, N-(6,7-difluoro-2-benzoxazolyl)-O-[4-oxo-4-[(1,4,5,6-tetrahydro-2-pyrimidinyl)amino]butyl]-L-tyrosine] |
| 7 nM | O=C(CCCOc1ccc(C[C@H](Nc2nc3cc(Cl)cc(Cl)c3o2)C(=O)O)cc1)NC1=NCCCN1 [Example 28, N-(5,7-dichloro-2-benzoxazolyl)-O-[4-oxo-4-[(1,4,5,6-tetrahydro-2-pyrimidinyl)amino]butyl]-L-tyrosine] |
| 10 nM | Cc1c(Cl)cc2nc(N[C@@H](Cc3ccc(OCCCC(=O)NC4=NCCCN4)cc3)C(=O)O)oc2c1Cl [Example 29, N-(5,7-dichloro-6-methyl-2-benzoxazolyl)-O-[4-oxo-4-[(1,4,5,6-tetrahydro-2-pyrimidinyl)amino]butyl]-L-tyrosine] |
| 7 nM | O=C(CCCOc1ccc(C[C@H](Nc2nc3cc(S(=O)(=O)Nc4ccccc4)ccc3o2)C(=O)O)cc1)NC1=NCCCN1 [Example 30, N-[5-[(phenylamino)sulphonyl]-2-benzoxazolyl]-O-[4-oxo-4-[(1,4,5,6-tetrahydro-2-pyrimidinyl)amino]butyl]-L-tyrosine] |

The next lines start with the compound.

| Compound | IC50 |
| --- | --- |
| O=C(O)[C@H](Cc1ccc(OCCCc2ccc3c(n2)NCCC3)cc1)Nc1nnnn1Cc1ccccc1 [Example 1, N-[1-(phenylmethyl)-1H-tetrazol-5-yl]-O-[3-(5,6,7,8-tetrahydro-1,8-naphthyridin-2-yl)propyl]-L-tyrosine] | 9 nM |
| O=C(O)[C@H](Cc1ccc(OCCCc2ccc3c(n2)NCCC3)cc1)Nc1nc2ccccc2s1 [Example 2, N-(2-benzothiazolyl)-O-[3-(5,6,7,8-tetrahydro-1,8-naphthyridin-2-yl)propyl]-L-tyrosine] | 70 nM |
| O=C(O)[C@H](Cc1ccc(OCCCc2ccc3c(n2)NCCC3)cc1)Nc1nc2ccccc2o1 [Example 3, N-(2-benzoxazolyl)-O-[3-(5,6,7,8-tetrahydro-1,8-naphthyridin-2-yl)propyl]-L-tyrosine] | 50 nM |
| COc1ccc2[nH]c(N[C@@H](Cc3ccc(OCCCC(=O)NC4=NCCCN4)cc3)C(=O)O)nc2c1 [Example 4a] | 19 nM |
| Cc1ccc2[nH]c(N[C@@H](Cc3ccc(OCCCC(=O)NC4=NCCCN4)cc3)C(=O)O)nc2c1 [Example 4b, N-[5-methyl-1H-benzimidazol-2-yl]-O-[4-oxo-4-[(1,4,5,6-tetrahydro-2-pyrimidinyl)amino]butyl]-L-tyrosine] | 14 nM |
| O=C(CCCOc1ccc(C[C@H](Nc2nnnn2Cc2ccccc2)C(=O)O)cc1)NC1=NCCCN1 [Example 5, O-[4-oxo-4-[(1,4,5,6-tetrahydro-2-pyrimidinyl)amino]butyl]-N-[1-(phenylmethyl)-1H-tetrazol-5-yl]-L-tyrosine] | 15 nM |
| O=C(CCCOc1ccc(C[C@H](Nc2nc3ccccc3o2)C(=O)O)cc1)NC1=NCCCN1 [Example 6, N-(2-benzoxazolyl)-O-[4-oxo-4-[(1,4,5,6-tetrahydro-2-pyrimidinyl)amino]butyl]-L-tyrosine] | 5 nM |
| O=C(CCCOc1ccc(C[C@H](Nc2nc3ccccc3s2)C(=O)O)cc1)NC1=NCCCN1 [Example 7, N-(2-benzothiazolyl)-O-[4-oxo-4-[(1,4,5,6-tetrahydro-2-pyrimidinyl)amino]butyl]-L-tyrosine] | 6 nM |
| O=C(CCCOc1ccc(C[C@H](Nc2nc3ccc(Br)cc3s2)C(=O)O)cc1)NC1=NCCCN1 [Example 8, N-(6-bromo-2-benzothiazolyl)-O-[4-oxo-4-[(1,4,5,6-tetrahydro-2-pyrimidinyl)amino]butyl]-L-tyrosine] | 8 nM |
| O=C(CCCOc1ccc(C[C@H](Nc2nc3cc(Br)cc(F)c3o2)C(=O)O)cc1)NC1=NCCCN1 [Example 9, N-[5-bromo-7-fluoro-2-benzoxazolyl)-O-[4-oxo-4-[(1,4,5,6-tetrahydro-2-pyrimidinyl)amino]butyl]-L-tyrosine] | 9 nM |
| O=C(CCc1ccc(C(=O)NC[C@H](Nc2nc3cc(Br)ccc3o2)C(=O)O)cc1)NC1=NCCCN1 [Example 10, N-(5-bromo-2-benzoxazolyl)-3-[[4-[3-oxo-3-[(1,4,5,6-tetrahydro-2-pyrimidinyl)amino]propyl]benzoyl]amino]-L-alanine] | 6 nM |
| O=C(CCc1ccc(C(=O)NC[C@H](Nc2nc3ccc(Br)cc3s2)C(=O)O)cc1)NC1=NCCCN1 [Example 11, N-(6-bromo-2-benzothiazolyl)-3-[[4-[3-oxo-3-[(1,4,5,6-tetrahydro-2-pyrimidinyl)amino]propyl]benzoyl]amino]-L-alanine] | 7 nM |
